# Measured values as given in PMC8457749, “Design, Synthesis, and Anticancer Activity Evaluation of Hybrids of Azoles and Barbituric Acids” (Iranian Journal of Pharmaceutical Research : IJPR, 2021).
# Like-named read-outs stand apart in the source and are kept apart here.
# How the values were obtained:
# [1] = tested on: HCT-116 cells; assay: MTT antiproliferative assay, HCT-116; type: cell-based, human; settings: for inhibition at 100 µM / IC50: Homo sapiens; for inhibition at 100 µM: read-out: Growth Inhibition at 100 μM (%) HCT-116; for IC50: read-out: IC50 HCT-116
# Experimental: (§1) The antiproliferative activity of the target compounds against the panel of three different human cancer cell lines, liver (BEL-7402), colorectal (HCT-116), and breast (MCF-7) cell lines was evaluated using a standard MTT-based colorimetric assay. All cell lines were obtained from the Key Laboratory of Natural Resources and Functional Molecules of the Changbai Mountain (Yanbian University) and maintained in Dulbecco’s modified Eagle’s medium (DMEM) and RPMI Media 1640 (RPMI1640), supplemented with 10% foetal bovine serum (FBS) at 37 °C in a humidified atmosphere containing 5% CO2.
# (§2) The cells were plated in 96-well plates at appropriate densities to ensure exponential growth throughout the experimental period (9 × 10^3 cells per well) and then allowed to adhere for 24 h. the cells were then treated for 48 h with each compound. After 48 h of incubation, 10 μL of MTT solution was added to each well to a final concentration of 2 mg/mL. the plates were then incubated for a further 4 h. After incubation, the MTT solution was removed and 150 μL of DMSO was added to each well for coloration. The plates were shaken vigorously for 10 min at room temperature to ensure complete solubilisation. The optometric density (OD) was read on a microplate reader (EL × 800, BioTek, Highland Park, Winooski, VT, USA) at 492 nm, and the data were subsequently analysed. The percentage of cell growth inhibition was calculated from the following Equation:
# (§3) Inhibitory rate (%) = [1 − (ODtreated − ODblank)/(ODcontrol − ODblank)] × 100%
# (§4) To obtain the antiproliferative activity of compounds 3a-3s and 4a-4d, the compounds were selected in the same way with four serial concentrations (1, 10, 50 and 100 μM) of those compounds. The optometric density (OD) reading was then used to calculate the IC50.
# [2] = tested on: BEL-7402 cells; assay: MTT antiproliferative assay, BEL-7402; type: cell-based, human; settings: for inhibition at 100 µM / IC50: Homo sapiens; for inhibition at 100 µM: read-out: Growth Inhibition at 100 μM (%) BEL-7402; for IC50: read-out: IC50 BEL-7402; for Selectivity index BEL-7402: IC50 on normal cells (L02)/IC50 on tumor cells (BEL-7402)
# Experimental: as §1, §2, §3, §4
# [3] = tested on: MCF-7 cells; assay: MTT antiproliferative assay, MCF-7; type: cell-based, human; settings: for inhibition at 100 µM / IC50: Homo sapiens, MCF7, 48 h; for inhibition at 100 µM: read-out: Growth Inhibition at 100 μM (%) MCF-7; for IC50: read-out: IC50 MCF-7
# Experimental: as §1, §2, §3, §4
# [4] = tested on: L02 cells; assay: Antiproliferative activity against normal cell line L02; type: cell-based; settings: Homo sapiens, L02, read-out: L02 IC50
# Experimental: The lack of selective cytotoxicity is the main factor that restricts the dose of most conventional chemotherapeutic agents ([21]). […] Selectivity indexes between cancer cells and L02 cells were calculated.
Compound,"inhibition at 100 µM ([1]; HCT-116, 48 h)","inhibition at 100 µM ([2]; Bel-7402, 48 h)",inhibition at 100 µM [3],"IC50 ([1]; HCT-116, 48 h)","IC50 ([2]; Bel-7402, 48 h)",IC50 [3],melting point,Selectivity index BEL-7402 [2],IC50 [4],Selectivity index HCT-116 ([1]; IC50 on normal cells (L02)/IC50 on tumor cells (HCT-116)),Selectivity index MCF-7 ([3]; IC50 on normal cells (L02)/IC50 on tumor cells (MCF-7)),"IC50 ([1]; HCT-116, 48 h, MTT)","IC50 ([2]; Bel-7402, 48 h, MTT)"
"O=C1NC(=O)C(=Cc2cn(Cc3ccccc3)c3ccccc23)C(=O)N1 [A, 5-((1-benzyl-1H-indol-3-yl)methylene)pyrimidine-2,4,6 (1H,3H,5H)-trione, reference compound]",26.2 ± 1.8%,19.6 ± 2.1%,11.8 ± 1%,,,,,,,,,,
O=C1CC(=O)NC(=O)N1 [Barbituric acid],14.3 ± 2.2%,11.7 ± 1%,< 5%,> 100 µM,> 100 µM,> 100 µM,,,,,,,
"O=C1NC(=O)C(=Cc2cn(-c3ccccc3)nn2)C(=O)N1 [Compound 3a, 5((1-phenyl-1H-1,2,3-triazol-4-yl)methylene)pyrimidine-2,4,6(1H,3H,5H)-trione]",42.7 ± 2.5%,54 ± 3.4%,30.9 ± 2.6%,,,,250 °C,,,,,,
"O=C1NC(=O)C(=Cc2cn(-c3ccccc3F)nn2)C(=O)N1 [Compound 3b, 5-((1-(2-fluorophenyl)-1H-1,2,3-triazol-4-yl)methylene)pyrimidine-2,4,6(1H,3H,5H)-trione]",67.6 ± 3.8%,34.1 ± 4.3%,27.5 ± 1.6%,78.2 ± 2.34 µM,> 100 µM,> 100 µM,250 °C,,,,,,
"O=C1NC(=O)C(=Cc2cn(-c3cccc(F)c3)nn2)C(=O)N1 [Compound 3c, 5-((1-(3-fluorophenyl)-1H-1,2,3-triazol-4-yl)methylene)pyrimidine-2,4,6(1H,3H,5H)-trione]",48.4 ± 2.3%,79 ± 3.9%,34.6 ± 1.8%,> 100 µM,12.2 ± 0.91 µM,> 100 µM,250 °C,6.74,82.3 ± 4 µM,,,,
"O=C1NC(=O)C(=Cc2cn(-c3ccc(F)cc3)nn2)C(=O)N1 [Compound 3d, 5-((1-(4-fluorophenyl)-1H-1,2,3-triazol-4-yl)methylene)pyrimidine-2,4,6(1H,3H,5H)-trione]",31.6 ± 1.9%,31.9 ± 2.8%,34.1 ± 2.3%,,,,250 °C,,,,,,
"O=C1NC(=O)C(=Cc2cn(-c3ccccc3Cl)nn2)C(=O)N1 [Compound 3e, 5-((1-(2-chlorophenyl)-1H-1,2,3-triazol-4-yl)methylene)pyrimidine-2,4,6(1H,3H,5H)-trione]",14.8 ± 0.9%,39.6 ± 4.1%,19.8 ± 1.5%,,,,250 °C,,,,,,
"O=C1NC(=O)C(=Cc2cn(-c3cccc(Cl)c3)nn2)C(=O)N1 [Compound 3f, 5-((1-(3-chlorophenyl)-1H-1,2,3-triazol-4-yl)methylene)pyrimidine-2,4,6(1H,3H,5H)-trione]",79.3 ± 5.6%,75.2 ± 3%,58 ± 3.2%,14.9 ± 0.55 µM,15.9 ± 1.32 µM,29.1 ± 0.34 µM,250 °C,5.89,93.9 ± 5.9 µM,6.28,3.22,,
"O=C1NC(=O)C(=Cc2cn(-c3ccc(Cl)c(Cl)c3)nn2)C(=O)N1 [Compound 3i, 5-((1-(3,4-dichlorophenyl)-1H-1,2,3-triazol-4-yl)methylene)pyrimidine-2,4,6(1H,3H,5H)-trione]",69.3 ± 2.9%,47.2 ± 4.7%,14.2 ± 1.5%,55.2 ± 2.31 µM,> 100 µM,> 100 µM,250 °C,,,,,,
"O=C1NC(=O)C(=Cc2cn(-c3ccccc3Br)nn2)C(=O)N1 [Compound 3j, 5-((1-(2-bromophenyl)-1H-1,2,3-triazol-4-yl)methylene)pyrimidine-2,4,6(1H,3H,5H)-trione]",46.3 ± 3.4%,36.8 ± 2.1%,42.7 ± 2.6%,,,,250 °C,,,,,,
"O=C1NC(=O)C(=Cc2cn(-c3ccc(Br)cc3)nn2)C(=O)N1 [Compound 3l, 5-((1-(4-bromophenyl)-1H-1,2,3-triazol-4-yl)methylene)pyrimidine-2,4,6(1H,3H,5H)-trione]",49.8 ± 3.8%,44.8 ± 3.8%,< 5%,,,,250 °C,,,,,,
"COc1ccccc1-n1cc(C=C2C(=O)NC(=O)NC2=O)nn1 [Compound 3m, 5-((1-(2-methoxyphenyl)-1H-1,2,3-triazol-4-yl)methylene)pyrimidine-2,4,6(1H,3H,5H)-trione]",44.2 ± 3.4%,25.6 ± 2.1%,7.9 ± 1.1%,,,,250 °C,,,,,,
"COc1cccc(-n2cc(C=C3C(=O)NC(=O)NC3=O)nn2)c1 [Compound 3n, 5-((1-(3-methoxyphenyl)-1H-1,2,3-triazol-4-yl)methylene)pyrimidine-2,4,6(1H,3H,5H)-trione]",67.1 ± 5.6%,36.7 ± 19%,23.3 ± 3.5%,30.7 ± 2.1 µM,> 100 µM,> 100 µM,250 °C,,,,,,
"COc1ccc(-n2cc(C=C3C(=O)NC(=O)NC3=O)nn2)cc1 [Compound 3o, 5-((1-(4-methoxyphenyl)-1H-1,2,3-triazol-4-yl)methylene)pyrimidine-2,4,6(1H,3H,5H)-trione]",7.9 ± 0.6%,28.4 ± 3.1%,22.6 ± 2.7%,,,,250 °C,,,,,,
"COc1ccc(-n2cc(C=C3C(=O)NC(=O)NC3=O)nn2)cc1OC [Compound 3p, 5-((1-(3,4-dimethoxyphenyl)-1H-1,2,3-triazol-4-yl)methylene)pyrimidine-2,4,6(1H,3H,5H)-trione]",43.9 ± 2.9%,38 ± 1.9%,18.6 ± 1.7%,,,,250 °C,,,,,,
"Cc1cccc(-n2cc(C=C3C(=O)NC(=O)NC3=O)nn2)c1 [Compound 3q, 5-((1-m-tolyl-1H-1,2,3-triazol-4-yl)methylene)pyrimidine-2,4,6(1H,3H,5H)-trione]",94.8 ± 6.3%,23.7 ± 2.1%,91.9 ± 2.4%,32.8 ± 1.9 µM,> 100 µM,29.8 ± 2.01 µM,250 °C,,,,,,
"Cc1ccc(-n2cc(C=C3C(=O)NC(=O)NC3=O)nn2)cc1 [Compound 3r, 5-((1-p-tolyl-1H-1,2,3-triazol-4-yl)methylene)pyrimidine-2,4,6(1H,3H,5H)-trione]",52.5 ± 2%,39.8 ± 3.1%,< 5%,,,,250 °C,,,,,,
"Cc1nn(-c2ccccc2)c(C)c1C=C1C(=O)NC(=O)NC1=O [Compound 4a, 5-((3,5-dimethyl-1-phenyl-1H-pyrazol-4-yl)methylene)pyrimidine-2,4,6(1H,3H,5H)-trione]",30.9 ± 3.1%,38.7 ± 1%,< 5%,,,,250 °C,,,,,,
"Cc1nn(-c2cccc(F)c2)c(C)c1C=C1C(=O)NC(=O)NC1=O [Compound 4b, 5-((1-(3-fluorophenyl)-3,5-dimethyl-1H-pyrazol-4-yl)methylene)pyrimidine-2,4,6(1H,3H,5H)-trione]",9.1 ± 1.2%,14.7 ± 1.2%,< 5%,,,,250 °C,,,,,,
"Cc1nn(-c2cccc(Cl)c2)c(C)c1C=C1C(=O)NC(=O)NC1=O [Compound 4c, 5-((1-(3-chlorophenyl)-3,5-dimethyl-1H-pyrazol-4-yl)methylene)pyrimidine-2,4,6(1H,3H,5H)-trione]",58.7 ± 5.2%,64 ± 2.1%,15.5 ± 1.1%,47.5 ± 3.21 µM,48.2 ± 0.78 µM,> 100 µM,250 °C,,,,,,
"Cc1ccc(-n2nc(C)c(C=C3C(=O)NC(=O)NC3=O)c2C)cc1 [Compound 4d, 5-((3,5-dimethyl-1-p-tolyl-1H-pyrazol-4-yl)methylene)pyrimidine-2,4,6(1H,3H,5H)-trione]",28.4 ± 3%,38.1 ± 1.3%,< 5%,,,,250 °C,,,,,,
"O=c1[nH]cc(F)c(=O)[nH]1 [Compound 5-FU, 5-fluorouracil, reference compound]",,,,,,,,,,,,24.8 ± 0.78 µM,21.3 ± 0.56 µM
